The subject of the series is CCRIS mutagenicity, Ames/micronucleus/aberration tests. Briefly: CCRIS mutagenicity studies.
[1] abbreviates: Test System: AMES SALMONELLA TYPHIMURIUM, Strain/Indicator: TA98, Metabolic Activation: NONE, Method: PREINCUBATION
The mark [2] stands for this setting: Test System: AMES SALMONELLA TYPHIMURIUM, Strain/Indicator: TA100, Metabolic Activation: NONE, Method: PREINCUBATION
The mark [3] stands for this setting: Test System: AMES SALMONELLA TYPHIMURIUM, Strain/Indicator: TA1535, Metabolic Activation: NONE, Method: PREINCUBATION
Where [4] appears, read: Test System: AMES SALMONELLA TYPHIMURIUM, Strain/Indicator: TA1537, Metabolic Activation: NONE, Method: PREINCUBATION
The mark [5] stands for this setting: Test System: AMES SALMONELLA TYPHIMURIUM, Strain/Indicator: TA98, Metabolic Activation: NONE, Method: STANDARD PLATE.
Setting [6] is: Test System: AMES SALMONELLA TYPHIMURIUM, Strain/Indicator: TA100, Metabolic Activation: NONE, Method: STANDARD PLATE.

SMILES strings stand for the structures. Activity calls are given as the source filed them. How the calls were made is not given here.

As for `O=[N+]([O-])c1ccccc1Nc1ccccc1`, the mutagenic call (Test System: AMES SALMONELLA TYPHIMURIUM, Strain/Indicator: TA97, Metabolic Activation: HAMSTER, LIVER, S-9, AROCLOR 1254 (5, 10 OR 30%), Method: PREINCUBATION) was “inactive; negative”; the mutagenic call (Test System: AMES SALMONELLA TYPHIMURIUM, Strain/Indicator: TA97, Metabolic Activation: NONE, Method: PREINCUBATION) is “inactive; negative”; the mutagenic call (Test System: AMES SALMONELLA TYPHIMURIUM, Strain/Indicator: TA97, Metabolic Activation: RAT, LIVER, S-9, AROCLOR 1254 (10%), Method: PREINCUBATION) is “inactive; negative”; the mutagenic call (Test System: AMES SALMONELLA TYPHIMURIUM, Strain/Indicator: TA97, Metabolic Activation: RAT, LIVER, S-9, AROCLOR 1254 (30%), Method: PREINCUBATION) is “inactive; negative”; the mutagenic call (Test System: AMES SALMONELLA TYPHIMURIUM, Strain/Indicator: TA98, Metabolic Activation: HAMSTER, LIVER, S-9, AROCLOR 1254 (10%), Method: PREINCUBATION) is “inactive; negative”; the mutagenic call (Test System: AMES SALMONELLA TYPHIMURIUM, Strain/Indicator: TA98, Metabolic Activation: HAMSTER, LIVER, S-9, AROCLOR 1254 (30%), Method: PREINCUBATION) was “inactive; negative”. The mutagenic call runs as follows: under setting [1], “inactive; negative”; (Test System: AMES SALMONELLA TYPHIMURIUM, Strain/Indicator: TA98, Metabolic Activation: RAT, LIVER, S-9, AROCLOR 1254 (10%), Method: PREINCUBATION) “inactive; negative”; (Test System: AMES SALMONELLA TYPHIMURIUM, Strain/Indicator: TA98, Metabolic Activation: RAT, LIVER, S-9, AROCLOR 1254 (30%), Method: PREINCUBATION) “inactive; negative”; (Test System: AMES SALMONELLA TYPHIMURIUM, Strain/Indicator: TA100, Metabolic Activation: HAMSTER, LIVER, S-9, AROCLOR 1254 (10%), Method: PREINCUBATION) “inactive; negative”; (Test System: AMES SALMONELLA TYPHIMURIUM, Strain/Indicator: TA100, Metabolic Activation: HAMSTER, LIVER, S-9, AROCLOR 1254 (30%), Method: PREINCUBATION) “inactive; negative”; under setting [2], “inactive; negative”. The mutagenic call reads like this: (Test System: AMES SALMONELLA TYPHIMURIUM, Strain/Indicator: TA100, Metabolic Activation: RAT, LIVER, S-9, AROCLOR 1254 (10%), Method: PREINCUBATION) “inactive; negative”; (Test System: AMES SALMONELLA TYPHIMURIUM, Strain/Indicator: TA100, Metabolic Activation: RAT, LIVER, S-9, AROCLOR 1254 (30%), Method: PREINCUBATION) “inactive; negative”; (Test System: AMES SALMONELLA TYPHIMURIUM, Strain/Indicator: TA1535, Metabolic Activation: HAMSTER, LIVER, S-9, AROCLOR 1254 (10%), Method: PREINCUBATION) “inactive; negative”; (Test System: AMES SALMONELLA TYPHIMURIUM, Strain/Indicator: TA1535, Metabolic Activation: HAMSTER, LIVER, S-9, AROCLOR 1254 (30%), Method: PREINCUBATION) “inactive; negative”; under setting [3], “inactive; negative”; (Test System: AMES SALMONELLA TYPHIMURIUM, Strain/Indicator: TA1535, Metabolic Activation: RAT, LIVER, S-9, AROCLOR 1254 (10%), Method: PREINCUBATION) “inactive; negative”. Besides, the mutagenic call (Test System: AMES SALMONELLA TYPHIMURIUM, Strain/Indicator: TA1535, Metabolic Activation: RAT, LIVER, S-9, AROCLOR 1254 (30%), Method: PREINCUBATION) was “inactive; negative”.
Take `C=C(C)C(=O)O`: the mutagenic call is, setting by setting: (Test System: AMES SALMONELLA TYPHIMURIUM, Strain/Indicator: TA98, Metabolic Activation: HAMSTER, LIVER, S-9, AROCLOR 1254, Method: PREINCUBATION) “inactive; negative”; under setting [1], “inactive; negative”; (Test System: AMES SALMONELLA TYPHIMURIUM, Strain/Indicator: TA98, Metabolic Activation: RAT, LIVER, S-9, AROCLOR 1254, Method: PREINCUBATION) “inactive; negative”; (Test System: AMES SALMONELLA TYPHIMURIUM, Strain/Indicator: TA100, Metabolic Activation: HAMSTER, LIVER, S-9, AROCLOR 1254, Method: PREINCUBATION) “inactive; negative”; under setting [2], “inactive; negative”; (Test System: AMES SALMONELLA TYPHIMURIUM, Strain/Indicator: TA100, Metabolic Activation: RAT, LIVER, S-9, AROCLOR 1254, Method: PREINCUBATION) “inactive; negative”. For the same compound, the mutagenic call by setting is: (Test System: AMES SALMONELLA TYPHIMURIUM, Strain/Indicator: TA1535, Metabolic Activation: HAMSTER, LIVER, S-9, AROCLOR 1254, Method: PREINCUBATION) “inactive; negative”; under setting [3], “inactive; negative”; (Test System: AMES SALMONELLA TYPHIMURIUM, Strain/Indicator: TA1535, Metabolic Activation: RAT, LIVER, S-9, AROCLOR 1254, Method: PREINCUBATION) “inactive; negative”; (Test System: AMES SALMONELLA TYPHIMURIUM, Strain/Indicator: TA1537, Metabolic Activation: HAMSTER, LIVER, S-9, AROCLOR 1254, Method: PREINCUBATION) “inactive; negative”; under setting [4], “inactive; negative”; (Test System: AMES SALMONELLA TYPHIMURIUM, Strain/Indicator: TA1537, Metabolic Activation: RAT, LIVER, S-9, AROCLOR 1254, Method: PREINCUBATION) “inactive; negative”.
In the case of `Clc1cccc2oc3ccccc3c12`, the mutagenic call was “inactive; negative” under setting [5]; “inactive; negative” (Test System: AMES SALMONELLA TYPHIMURIUM, Strain/Indicator: TA98, Metabolic Activation: RAT, LIVER, S-9, PHENOBARBITAL AND NAPHTHOFLAVONE, Method: STANDARD PLATE); “inactive; negative” under setting [6]; “inactive; negative” (Test System: AMES SALMONELLA TYPHIMURIUM, Strain/Indicator: TA100, Metabolic Activation: RAT, LIVER, S-9, PHENOBARBITAL AND NAPHTHOFLAVONE, Method: STANDARD PLATE).
For the compound `O=C1C(=O)c2cccc3cccc1c23`, the mutagenic call (Test System: AMES SALMONELLA TYPHIMURIUM, Strain/Indicator: TA98, Metabolic Activation: HAMSTER, LIVER, S-9, AROCLOR 1254, Method: STANDARD PLATE) is “inactive; negative”; the mutagenic call under setting [5] is “active; positive”; the mutagenic call (Test System: AMES SALMONELLA TYPHIMURIUM, Strain/Indicator: TA98, Metabolic Activation: RAT, LIVER, S-9, AROCLOR 1254, Method: STANDARD PLATE) was “active; positive”; the mutagenic call (Test System: AMES SALMONELLA TYPHIMURIUM, Strain/Indicator: TA100, Metabolic Activation: HAMSTER, LIVER, S-9, AROCLOR 1254, Method: STANDARD PLATE) was “active; positive”; the mutagenic call under setting [6] is “inactive; negative”; the mutagenic call (Test System: AMES SALMONELLA TYPHIMURIUM, Strain/Indicator: TA100, Metabolic Activation: RAT, LIVER, S-9, AROCLOR 1254, Method: STANDARD PLATE) was “inactive; negative”. The mutagenic call reads like this: (Test System: MOUSE LYMPHOMA, Strain/Indicator: L5178Y (TK+/TK-), Metabolic Activation: NONE, Method: SUSPENSION/PLATE) “active; positive. reevaluation of results: equivocal”; (Test System: MOUSE LYMPHOMA, Strain/Indicator: L5178Y (TK+/TK-), Metabolic Activation: RAT, LIVER, S-9, AROCLOR 1254, Method: SUSPENSION/PLATE) “active; positive. reevaluation of results: equivocal”.
Consider `C[n+]1c2ccccc2cc2ccccc21`, for which the mutagenic call reads like this: under setting [3], “inactive; negative”; (Test System: AMES SALMONELLA TYPHIMURIUM, Strain/Indicator: TA1535, Metabolic Activation: RAT, LIVER, S-9, TETRACHLOROBIPHENYL, Method: PREINCUBATION) “inactive; negative”; under setting [4], “inactive; negative”; (Test System: AMES SALMONELLA TYPHIMURIUM, Strain/Indicator: TA1537, Metabolic Activation: RAT, LIVER, S-9, TETRACHLOROBIPHENYL, Method: PREINCUBATION) “active; positive”; (Test System: AMES SALMONELLA TYPHIMURIUM, Strain/Indicator: TA1538, Metabolic Activation: NONE, Method: PREINCUBATION) “inactive; negative”; (Test System: AMES SALMONELLA TYPHIMURIUM, Strain/Indicator: TA1538, Metabolic Activation: RAT, LIVER, S-9, TETRACHLOROBIPHENYL, Method: PREINCUBATION) “active; positive”. Further, for the setting “Test System: AMES SALMONELLA TYPHIMURIUM, Strain/Indicator: TA1978, Metabolic Activation: RAT, LIVER, S-9, TETRACHLOROBIPHENYL, Method: PREINCUBATION”, the mutagenic call was “inactive; negative”.
As for `O=[N+]([O-])c1[nH]cnc1-c1ccccc1`, the mutagenic call under setting [6] was “active; positive”.

(Values after PubChem BioAssay AID1259407 (Chemical Carcinogenesis Research Information System (CCRIS), 2018).)
